From PubChem BioAssay AID1926 (The Scripps Research Institute Molecular Screening Center, 2009) come the findings set out here.

Each structure is given as a SMILES string. pIC50: −log10 of the molar value. Calls of active or inactive are those of the source.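 The calls were made as follows: active = IC50 half-maximal inhibitory concentration at or below 10 µM; inactive = IC50 above 10 µM.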

In this test the target is VIM-2 metallo-beta-lactamase (Pseudomonas aeruginosa) (UniProt Q932Y6). The experiment in a line: VIM-2 CCF2 hydrolysis inhibition, assay artifact filter – biochemical, FRET readout, CCF2 substrate, artefact control for selective VIM-2 inhibitor project, dose response (AID 1926). The note with it: purified VIM-2, CCF2 FRET substrate hydrolysis.
Usually pIC50 stands for the negative decadic logarithm of the IC50, by convention in mol/L. For `Cc1c(Cl)c(-c2n[nH]c(=S)n2-c2ccc(F)cc2)nn1C`, the pIC50 is 5.20.
For `CC(C)(C)C(=O)Nc1nnc(CSCc2ccccc2F)s1`, the pIC50 is 5.71.
In the case of `COc1ccccc1-c1n[nH]c(=S)n1Cc1ccco1`, the pIC50 is 5.19.
For the compound `O=C(CSc1nnc(NC(=O)c2cccc(F)c2)s1)NCc1ccco1`, the pIC50 was 5.34.
In the case of `O=C(O)Cn1cccc1C(=O)c1ccccc1`, the pIC50 is 5.39.
Consider `CSC[C@H](NC(=O)COc1cc2c(c3oc(=O)c(C)c(C)c13)CCC(C)(C)O2)C(=O)O`, for which the pIC50 is 5.38.
For the compound `O=C(CSc1nnc(NC(=O)c2c(F)cccc2F)s1)NCc1ccccc1`, the pIC50 was 5.44.
One may read the IC50 as the midpoint of a concentration-inhibition curve. Consider `O=C(O)C1Sc2[nH]c(=O)sc2C2c3cc(Cl)ccc3OC(=O)C12` (stereo unspecified), for which the IC50 was > 59.6 µM (inactive).
Consider `S=c1[nH]nc(-c2ccccc2)n1C1C=CCCC1` (stereo unspecified), for which the pIC50 is 5.30.
For the compound `CC1=C(C(=O)O)N2C(=O)C(NC(=O)c3nn(C)cc3[N+](=O)[O-])C2SC1` (stereo unspecified), the pIC50 was 5.07.
Turning to `CC(C)(C)c1ccc(-c2n[nH]c(=S)n2CCCN2CCOCC2)cc1`, the pIC50 is 5.17.
With `COc1ccccc1C(=O)Nc1nnc(SCC(=O)NCc2ccco2)s1`, the pIC50 is 5.58.
As to `Cc1c(C)c2ccc(OCC(=O)N3CCC[C@@H]3C(=O)O)c(C)c2oc1=O`, the negative logarithm of the IC50 (pIC50) is 5.68.
For `COc1ccccc1-n1c(-c2ccco2)n[nH]c1=S`, the pIC50 is 5.28.
Take `Cc1ccc(-n2c(-c3nn(C)c(C)c3Cl)n[nH]c2=S)cc1`: the pIC50 was 5.43.
For the compound `CCN(CC)C(=O)CSc1nc2ccc(NC(=O)CSc3nccn3C)cc2s1`, the pIC50 was 5.44.
The same measure, in the same setting: then `O=C(CSc1nnc(NC(=O)C2CC2)s1)NCc1ccccc1Cl`, with 5.34; and `COCC(C)NC(=O)c1cc2cccc([N+](=O)[O-])c2[nH]1` (stereo unspecified), with 5.21; and `O=C(CSc1nnc(NC(=O)c2cc(Br)ccc2Cl)s1)NCC1CCCO1` (stereo unspecified), with 5.23.
`O=C(O)CC/C(=C\c1cc([N+](=O)[O-])ccc1Cl)c1nc2ccccc2s1`: the pIC50 is 5.38.
As for `O=P(O)(O)c1ccccc1OCc1ccccc1`, the negative logarithm of the IC50 (pIC50) is 6.16.
On to `O=C(O)c1[nH]c2ccc(Cl)cc2c1CCN1C(=O)c2ccccc2C1=O`, for which the negative logarithm of the IC50 (pIC50) was 6.43.
Consider `COc1cc2c(cc1OC)C(C)N(C(=O)c1nccnc1C(=O)O)CC2` (stereo unspecified), for which the pIC50 is 5.24.
In the case of `CC(C)(C)C(=O)Nc1nnc(SCC(=O)NCc2cccs2)s1`, the pIC50 was 6.06.
For `S=c1[nH]nc(-c2ccco2)n1Cc1ccccc1`, the pIC50 was 5.45.
Take `S=c1[nH]nc(C2CC2)n1Cc1ccccc1`: the pIC50 was 6.03.
Take `Cn1c(-c2sccc2OCc2ccc(Cl)cc2Cl)n[nH]c1=S`: the pIC50 is 6.11.
Regarding `Cc1ccc(S(=O)(=O)n2[nH]c(=O)cc2NC(=O)c2cccs2)cc1`, the pIC50 is 6.92.
On the same count and under the same terms, then `Cn1c(-c2sccc2OCc2ccccc2)n[nH]c1=S`, with 5.92.
As for `S=c1[nH]nc(-c2cccs2)n1C1CCCCC1`, the pIC50 is 5.88.
As to `Cc1cc(C(=O)OCC(=O)NC(=O)c2cccn2C)c2ccccc2n1`, the pIC50 is 5.64.
Take `Cc1cccc(-n2c(C)n[nH]c2=S)c1C`: the pIC50 was 5.08.
On to `CCCCn1c(-c2sccc2C)n[nH]c1=S`, for which the negative-log IC50 (pIC50) was 6.02.
Same read-out and setting: then `O=C(O)C(NC(=O)c1ccccc1)=C(Cl)Cl`, with 5.11; and `CCCn1c(C(C)C)n[nH]c1=S`, with 5.46.
On to `O=Cc1c(NCc2ccc(Cl)cc2)c2ccccc2[nH]c1=O`, for which the pIC50 was 5.01.
For `O=C1Nc2cc(C(=O)NCCCN3CCOCC3)ccc2S/C1=C/c1ccccc1F`, the IC50 result is “inactive”.
As to `CCOC(=O)c1[nH]c(C(=O)O)c(CCC(=O)OC)c1C`, the pIC50 is 5.30.
For `CCCc1cc(=O)oc2c3c(cc(OCC(=O)N4CCC[C@H]4C(=O)O)c12)OC(C)(C)CC3`, the pIC50 is 5.76.
As for `O=C(c1ccco1)N1N=C(c2ccc(Cl)cc2)CC1c1ccco1` (stereo unspecified), the pIC50 is 5.79.
`CC(=O)c1ccc(-c2ccc(Cn3c(C)nc4cc(N)c(C)nc43)cc2)cc1`: the pIC50 was 5.20.
